Format in all cases: biochemical
For test [1], the target named is T1, Ec-DdRP (Escherichia coli, UniProt P0A8T7+P0A8V2).
T1 construct: gene rpoB; multisubunit RNAP without added sigma, in assembled elongation complex; expressed in E. coli T7 Express from pVS10, Ni-, heparin and Q-sepharose purified; with DNA-directed RNA polymerase subunit alpha; DNA-directed RNA polymerase subunit omega

The next test has as its target T2, Mt-DdRP (Homo sapiens, UniProt O00411).
T2 construct: gene POLRMT; expressed in E. coli from pRP009, Ni-, heparin and S-sepharose purified; in assembled elongation complex
In words: single-nucleotide addition, denaturing PAGE. The settings on record: elongation complex, 100 μM analog, 1 min, 10 mM MgCl2, pH 7.5, 25 °C.

The target of test [2] is T1, Ec-DdRP. This is another data set of the same source.
Where [3] appears, read: elongation complex, FOR as A-substitute (incorporation rate 27 s^-1), 10 mM MgCl2, pH 7.5, 25 °C.

Each structure is given as a SMILES string. Like-named read-outs stand apart in the source and are kept apart here.

T1 sequence (P0A7Z4 whole entry): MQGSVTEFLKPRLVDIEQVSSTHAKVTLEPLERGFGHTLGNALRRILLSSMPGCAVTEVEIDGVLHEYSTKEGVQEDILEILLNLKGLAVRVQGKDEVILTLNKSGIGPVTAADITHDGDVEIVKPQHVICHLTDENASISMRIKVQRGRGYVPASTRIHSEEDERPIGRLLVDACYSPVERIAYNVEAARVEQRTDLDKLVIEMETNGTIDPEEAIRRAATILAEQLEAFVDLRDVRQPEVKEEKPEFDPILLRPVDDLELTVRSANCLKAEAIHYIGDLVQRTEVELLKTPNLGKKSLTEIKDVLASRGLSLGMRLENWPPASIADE
T1 sequence (P0A8T7 whole entry): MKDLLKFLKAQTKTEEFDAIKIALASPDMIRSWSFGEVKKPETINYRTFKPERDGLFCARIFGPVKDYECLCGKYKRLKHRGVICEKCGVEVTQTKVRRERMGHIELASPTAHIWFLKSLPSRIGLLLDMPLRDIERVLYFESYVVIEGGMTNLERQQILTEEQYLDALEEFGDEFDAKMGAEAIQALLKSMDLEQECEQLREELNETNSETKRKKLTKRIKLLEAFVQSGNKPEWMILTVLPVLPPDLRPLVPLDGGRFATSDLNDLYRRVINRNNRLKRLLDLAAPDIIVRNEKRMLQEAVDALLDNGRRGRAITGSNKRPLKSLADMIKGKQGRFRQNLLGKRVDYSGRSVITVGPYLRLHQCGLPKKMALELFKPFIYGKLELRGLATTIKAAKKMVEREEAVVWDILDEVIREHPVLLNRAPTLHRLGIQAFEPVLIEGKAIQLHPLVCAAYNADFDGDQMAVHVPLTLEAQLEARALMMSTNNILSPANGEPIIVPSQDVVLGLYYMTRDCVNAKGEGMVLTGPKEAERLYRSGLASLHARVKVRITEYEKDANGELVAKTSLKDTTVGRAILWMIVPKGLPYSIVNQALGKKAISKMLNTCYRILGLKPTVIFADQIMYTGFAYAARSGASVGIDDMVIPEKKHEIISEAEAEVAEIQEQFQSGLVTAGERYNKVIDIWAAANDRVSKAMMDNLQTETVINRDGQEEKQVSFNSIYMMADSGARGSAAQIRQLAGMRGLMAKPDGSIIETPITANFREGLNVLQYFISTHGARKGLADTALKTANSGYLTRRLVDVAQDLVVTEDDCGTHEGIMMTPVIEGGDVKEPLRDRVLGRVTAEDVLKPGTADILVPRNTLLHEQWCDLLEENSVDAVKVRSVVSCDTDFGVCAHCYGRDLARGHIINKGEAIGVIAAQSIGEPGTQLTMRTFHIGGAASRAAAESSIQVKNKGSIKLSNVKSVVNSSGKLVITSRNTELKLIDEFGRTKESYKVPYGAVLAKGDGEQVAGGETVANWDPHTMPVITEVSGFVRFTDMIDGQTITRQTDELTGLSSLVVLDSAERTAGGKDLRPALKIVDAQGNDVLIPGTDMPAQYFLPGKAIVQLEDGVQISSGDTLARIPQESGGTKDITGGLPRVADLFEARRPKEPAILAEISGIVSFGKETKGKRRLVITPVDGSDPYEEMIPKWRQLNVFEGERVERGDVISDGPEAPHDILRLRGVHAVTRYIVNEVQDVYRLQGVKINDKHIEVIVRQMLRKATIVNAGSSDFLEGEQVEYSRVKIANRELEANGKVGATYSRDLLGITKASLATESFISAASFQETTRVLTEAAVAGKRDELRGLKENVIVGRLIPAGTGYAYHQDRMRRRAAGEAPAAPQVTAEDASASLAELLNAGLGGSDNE
T1 sequence (P0A8V2 whole entry): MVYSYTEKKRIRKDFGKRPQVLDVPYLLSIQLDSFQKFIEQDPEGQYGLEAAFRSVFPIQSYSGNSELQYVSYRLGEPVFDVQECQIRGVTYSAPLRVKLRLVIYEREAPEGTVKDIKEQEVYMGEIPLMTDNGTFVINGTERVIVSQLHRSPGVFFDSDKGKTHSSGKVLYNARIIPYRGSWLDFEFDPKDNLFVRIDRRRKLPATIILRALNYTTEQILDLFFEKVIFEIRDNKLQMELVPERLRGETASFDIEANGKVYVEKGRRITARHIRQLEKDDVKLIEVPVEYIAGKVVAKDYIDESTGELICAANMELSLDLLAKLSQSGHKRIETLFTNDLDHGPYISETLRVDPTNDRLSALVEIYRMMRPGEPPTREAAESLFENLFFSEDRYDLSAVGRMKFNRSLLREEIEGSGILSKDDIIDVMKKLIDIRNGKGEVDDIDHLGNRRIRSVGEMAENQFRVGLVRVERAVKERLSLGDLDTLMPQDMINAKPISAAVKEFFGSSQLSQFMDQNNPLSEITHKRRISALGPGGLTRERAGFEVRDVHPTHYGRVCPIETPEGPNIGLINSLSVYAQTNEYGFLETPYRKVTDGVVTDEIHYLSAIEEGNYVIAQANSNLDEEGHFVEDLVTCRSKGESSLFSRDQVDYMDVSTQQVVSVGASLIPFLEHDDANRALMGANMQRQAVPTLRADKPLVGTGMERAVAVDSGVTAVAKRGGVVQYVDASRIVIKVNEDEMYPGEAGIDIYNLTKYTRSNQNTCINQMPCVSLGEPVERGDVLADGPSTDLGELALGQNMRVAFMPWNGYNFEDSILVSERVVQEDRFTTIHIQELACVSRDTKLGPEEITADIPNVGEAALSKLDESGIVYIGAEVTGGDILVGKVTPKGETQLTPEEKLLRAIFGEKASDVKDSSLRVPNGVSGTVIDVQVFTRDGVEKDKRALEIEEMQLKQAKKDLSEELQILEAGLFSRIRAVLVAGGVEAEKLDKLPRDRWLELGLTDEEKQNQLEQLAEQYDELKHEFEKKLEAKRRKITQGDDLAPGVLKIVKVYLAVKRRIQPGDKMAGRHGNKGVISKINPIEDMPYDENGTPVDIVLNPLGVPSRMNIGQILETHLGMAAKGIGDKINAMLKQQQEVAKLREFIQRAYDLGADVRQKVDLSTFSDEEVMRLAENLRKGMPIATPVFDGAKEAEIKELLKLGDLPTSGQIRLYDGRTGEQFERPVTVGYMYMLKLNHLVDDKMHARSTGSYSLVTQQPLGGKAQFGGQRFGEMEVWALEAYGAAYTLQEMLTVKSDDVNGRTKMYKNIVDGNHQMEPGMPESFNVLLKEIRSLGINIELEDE
T1 sequence (P0A800 2-91, further chain): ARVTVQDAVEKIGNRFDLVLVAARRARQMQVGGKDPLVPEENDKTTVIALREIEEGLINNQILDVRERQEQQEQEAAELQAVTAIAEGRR
T2 sequence (O00411 42-1230): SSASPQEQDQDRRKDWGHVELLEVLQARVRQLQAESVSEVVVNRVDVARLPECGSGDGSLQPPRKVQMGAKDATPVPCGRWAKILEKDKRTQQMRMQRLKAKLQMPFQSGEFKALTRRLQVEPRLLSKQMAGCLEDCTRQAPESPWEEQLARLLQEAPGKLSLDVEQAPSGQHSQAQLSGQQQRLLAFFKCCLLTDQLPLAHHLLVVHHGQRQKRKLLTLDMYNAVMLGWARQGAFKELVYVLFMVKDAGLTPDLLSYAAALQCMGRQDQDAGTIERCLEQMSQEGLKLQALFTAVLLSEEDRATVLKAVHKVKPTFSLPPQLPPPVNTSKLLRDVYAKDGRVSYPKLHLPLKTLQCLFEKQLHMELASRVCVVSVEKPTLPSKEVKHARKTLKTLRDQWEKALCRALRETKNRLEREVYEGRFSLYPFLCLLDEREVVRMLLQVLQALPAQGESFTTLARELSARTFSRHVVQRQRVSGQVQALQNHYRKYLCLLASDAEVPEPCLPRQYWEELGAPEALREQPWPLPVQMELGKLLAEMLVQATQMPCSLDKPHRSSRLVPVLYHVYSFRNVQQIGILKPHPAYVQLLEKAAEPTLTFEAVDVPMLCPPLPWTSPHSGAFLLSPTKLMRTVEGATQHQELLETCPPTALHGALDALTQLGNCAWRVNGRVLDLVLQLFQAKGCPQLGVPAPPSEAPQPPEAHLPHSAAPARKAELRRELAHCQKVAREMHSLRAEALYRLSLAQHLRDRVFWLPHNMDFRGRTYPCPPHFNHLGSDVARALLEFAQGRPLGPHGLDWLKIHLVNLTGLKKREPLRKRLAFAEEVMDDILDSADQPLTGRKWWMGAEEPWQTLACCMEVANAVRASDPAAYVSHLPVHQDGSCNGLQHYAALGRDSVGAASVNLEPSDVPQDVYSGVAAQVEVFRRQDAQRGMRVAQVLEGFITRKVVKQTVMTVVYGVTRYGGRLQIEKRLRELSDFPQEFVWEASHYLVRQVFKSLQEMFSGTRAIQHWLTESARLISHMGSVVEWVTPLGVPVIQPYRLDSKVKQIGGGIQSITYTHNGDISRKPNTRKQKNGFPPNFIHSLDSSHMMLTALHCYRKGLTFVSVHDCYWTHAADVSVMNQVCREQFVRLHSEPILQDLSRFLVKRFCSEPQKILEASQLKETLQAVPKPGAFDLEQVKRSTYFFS

Take `Nc1ncnc2c([C@@H]3O[C@H](COP(=O)(O)OP(=O)(O)OP(=O)(O)O)[C@@H](O)[C@H]3O)n[nH]c12` [FOR triphosphate]: the koff on Ec-DdRP [1] (setting [3]) is 74 to 220 s⁻¹. The “single-nucleotide addition, denaturing PAGE” value on Mt-DdRP (incorporated in place of adenine) is “FOR was incorporated in place of adenine by all RNAPs in our set”. This compound gave an on-rate (kon) at Ec-DdRP [2] (setting [3]) of 3.1 to 6.6 µM⁻¹ s⁻¹.

For the compound `Nc1ncnc2c1ncn2[C@@H]1O[C@H](COP(=O)(O)OP(=O)(O)OP(=O)(O)O)[C@@H](O)[C@H]1O` [ATP], the off-rate constant (koff) on Ec-DdRP [1] is 5.6 to 19 s⁻¹. Moreover, the on-rate (kon) at Ec-DdRP [2] lay in the range of 1.2 to 1.5 µM⁻¹ s⁻¹.

Take `NC(=O)c1[nH]nc([C@@H]2O[C@H](COP(=O)(O)OP(=O)(O)OP(=O)(O)O)[C@@H](O)[C@H]2O)c1O` (mixture of isomers) [PYR 5′-triphosphate]: the “single-nucleotide addition, denaturing PAGE” value on Mt-DdRP (incorporated in place of uridine) is on record as “all RNAPs in our set incorporated PYR in place of uridine”.

The koff is the first-order rate constant of dissociation. Read a high koff as a short-lived complex. Usually kon stands for the second-order rate constant of association. Lower therefore signals slower complex formation.

The values are drawn from publication PMC11474200, “Probing the nucleobase selectivity of RNA polymerases with dual-coding substrates” (The Journal of Biological Chemistry, 2024).
